Test results as given in PMC7982320 (Pharmacology Research & Perspectives, 2021).
Each block holds one compound with its values, some of them ahead of it.

Legend:
[1] = cited from earlier work
[2] = healthy male subjects, single oral dose of 60 mg 14C‐DFZ; cited from earlier work
[3] = tested on: CYP1A2; assay: in vitro; assay type: in vitro ADME, human; conditions: human
[4] = tested on: CYP3A4; assay: in vitro; conditions: human
[5] = tested on: CYP2B6; assay: in vitro; assay type: in vitro ADME, human; conditions: human, 10 µM
[6] = CYP1A2 enzyme activity fold induction, donor one
[7] = CYP1A2 enzyme activity fold induction, donor three
[8] = CYP1A2 enzyme activity fold induction, donor two
[9] = CYP1A2 mRNA fold induction, donor one
[10] = CYP1A2 mRNA fold induction, donor three
[11] = CYP1A2 mRNA fold induction, donor two

Compound: CC1=N[C@]2(C(=O)CO)[C@@H](C[C@H]3[C@@H]4CCC5=CC(=O)C=C[C@]5(C)[C@H]4[C@@H](O)C[C@@]32C)O1 [21‐desDFZ, 21‐desacetyl deflazacort]
protein binding in human plasma [1]: about 40%
share of 0–24 h plasma levels of total radioactivity [2]: 33%

fold induction at 48 h, 10 µM [3, 6]: 0.744
fold induction at 48 h, 10 µM [3, 7]: 0.996
fold induction at 48 h, 10 µM [3, 8]: 0.805
fold induction at 48 h, 10 µM [3, 9]: 0.941
fold induction at 48 h, 10 µM [3, 10]: 0.898
fold induction at 48 h, 10 µM [3, 11]: 1.12
fold induction at 48 h, 10 µM ([4]; CYP3A4 enzyme activity fold induction, donor one): 0.881
fold induction at 48 h, 10 µM ([4]; CYP3A4 enzyme activity fold induction, donor three): 1.44
fold induction at 48 h, 10 µM ([4]; CYP3A4 enzyme activity fold induction, donor two): 0.861
fold induction at 48 h, 10 µM ([4]; CYP3A4 mRNA fold induction, donor one): 0.612
fold induction at 48 h, 10 µM ([4]; CYP3A4 mRNA fold induction, donor three): 1.18
fold induction at 48 h, 10 µM ([4]; CYP3A4 mRNA fold induction, donor two): 0.591
fold induction at 48 h, 10 µM ([5]; CYP2B6 enzyme activity fold induction, donor one): 0.719
fold induction at 48 h, 10 µM ([5]; CYP2B6 enzyme activity fold induction, donor three): 0.875
fold induction at 48 h, 10 µM ([5]; CYP2B6 enzyme activity fold induction, donor two): 1.05
fold induction at 48 h, 10 µM ([5]; CYP2B6 mRNA fold induction, donor one): 0.965
fold induction at 48 h, 10 µM ([5]; CYP2B6 mRNA fold induction, donor three): 0.989
fold induction at 48 h, 10 µM ([5]; CYP2B6 mRNA fold induction, donor two): 0.685
Compound: COc1c(N2CCNC(C)C2)c(F)cc2c(=O)c(C(=O)O)cn(C3CC3)c12 (centres unmarked) [Gatifloxacin, reference compound]

fold induction at 48 h, 100 µM [3, 6]: 3.55
fold induction at 48 h, 100 µM [3, 7]: 8.36
fold induction at 48 h, 100 µM [3, 8]: 5.48
fold induction at 48 h, 100 µM [3, 9]: 39.6
fold induction at 48 h, 100 µM [3, 10]: 40.5
fold induction at 48 h, 100 µM [3, 11]: 34.8
Compound: COc1ccc2[nH]c([S+]([O-])Cc3ncc(C)c(OC)c3C)nc2c1 (centres unmarked) [Omeprazole, reference compound]
